One experiment has as its target T1, ROCK2 (Homo sapiens, UniProt O75116).
T1 construct: T7 phage fusion (kinase-tagged phage) or DNA tag for qPCR detection
Put plainly: ROCK2 kinase binding affinity, DiscoverX KINOMEscan KdELECT. The settings on record: for Kd: KINOMEscan KdELECT, 11-point 3-fold dilution, read-out: Kd (μM) ROCK2; for ROCK2 Selectivity: selectivity for ROCK2 over ROCK1 from Kd. Summed up:
(§1)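 Competition binding of DNA- or phage-tagged kinase to immobilised ligand beads, with bound kinase quantified by qPCR of eluates.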

The target of another experiment is T2, ROCK1 (Homo sapiens, UniProt Q13464).
T2 construct: T7 phage fusion (kinase-tagged phage) or DNA tag for qPCR detection
T2 sequence (Q13464 whole entry, the tested form may be a part): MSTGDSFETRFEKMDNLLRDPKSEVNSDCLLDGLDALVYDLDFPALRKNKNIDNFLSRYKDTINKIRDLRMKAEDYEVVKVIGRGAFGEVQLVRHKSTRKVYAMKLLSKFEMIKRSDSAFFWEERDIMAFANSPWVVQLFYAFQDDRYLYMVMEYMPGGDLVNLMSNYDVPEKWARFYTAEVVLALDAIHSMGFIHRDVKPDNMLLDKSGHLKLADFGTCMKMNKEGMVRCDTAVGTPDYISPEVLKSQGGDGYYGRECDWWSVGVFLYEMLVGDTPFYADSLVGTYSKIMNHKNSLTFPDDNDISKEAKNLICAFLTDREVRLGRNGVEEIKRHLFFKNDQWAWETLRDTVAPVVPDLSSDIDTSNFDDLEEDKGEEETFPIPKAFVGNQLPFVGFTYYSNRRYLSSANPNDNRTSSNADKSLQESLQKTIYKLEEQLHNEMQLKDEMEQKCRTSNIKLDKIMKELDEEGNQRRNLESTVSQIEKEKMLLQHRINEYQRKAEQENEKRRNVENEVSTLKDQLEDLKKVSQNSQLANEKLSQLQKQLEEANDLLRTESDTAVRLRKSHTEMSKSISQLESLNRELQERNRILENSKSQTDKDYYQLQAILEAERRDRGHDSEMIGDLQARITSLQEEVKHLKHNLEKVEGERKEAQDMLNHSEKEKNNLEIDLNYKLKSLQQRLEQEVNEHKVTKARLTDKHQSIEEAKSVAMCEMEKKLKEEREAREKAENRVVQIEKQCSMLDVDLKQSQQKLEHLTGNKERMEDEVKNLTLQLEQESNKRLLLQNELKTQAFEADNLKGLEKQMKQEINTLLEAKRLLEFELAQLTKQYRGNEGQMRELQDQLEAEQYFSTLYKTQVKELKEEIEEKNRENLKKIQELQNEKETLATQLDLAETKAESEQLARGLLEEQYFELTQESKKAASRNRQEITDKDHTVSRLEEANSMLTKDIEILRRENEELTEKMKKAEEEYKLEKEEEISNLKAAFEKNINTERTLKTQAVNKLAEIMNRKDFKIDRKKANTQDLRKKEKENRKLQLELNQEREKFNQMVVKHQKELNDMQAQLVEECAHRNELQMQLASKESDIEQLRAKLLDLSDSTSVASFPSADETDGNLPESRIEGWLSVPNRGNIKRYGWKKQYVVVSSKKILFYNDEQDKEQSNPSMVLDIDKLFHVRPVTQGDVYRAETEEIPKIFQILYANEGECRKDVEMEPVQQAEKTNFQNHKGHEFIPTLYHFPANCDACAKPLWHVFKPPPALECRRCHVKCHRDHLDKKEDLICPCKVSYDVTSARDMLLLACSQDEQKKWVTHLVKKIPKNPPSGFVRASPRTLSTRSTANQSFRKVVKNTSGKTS
Nature of the experiment: ROCK1 kinase binding affinity, DiscoverX KINOMEscan KdELECT. Particulars: 11-point 3-fold dilution. Summed up: as §1

From US20230295131A1, “INHIBITORS OF RHO-ASSOCIATED COILED-COIL KINASE” (Angion Biomedica Corp., priority 2020, published 2023) come the findings set out here.

The term Kd denotes the equilibrium constant for the complex coming apart.

T1 sequence (O75116 whole entry, the tested form may be a part): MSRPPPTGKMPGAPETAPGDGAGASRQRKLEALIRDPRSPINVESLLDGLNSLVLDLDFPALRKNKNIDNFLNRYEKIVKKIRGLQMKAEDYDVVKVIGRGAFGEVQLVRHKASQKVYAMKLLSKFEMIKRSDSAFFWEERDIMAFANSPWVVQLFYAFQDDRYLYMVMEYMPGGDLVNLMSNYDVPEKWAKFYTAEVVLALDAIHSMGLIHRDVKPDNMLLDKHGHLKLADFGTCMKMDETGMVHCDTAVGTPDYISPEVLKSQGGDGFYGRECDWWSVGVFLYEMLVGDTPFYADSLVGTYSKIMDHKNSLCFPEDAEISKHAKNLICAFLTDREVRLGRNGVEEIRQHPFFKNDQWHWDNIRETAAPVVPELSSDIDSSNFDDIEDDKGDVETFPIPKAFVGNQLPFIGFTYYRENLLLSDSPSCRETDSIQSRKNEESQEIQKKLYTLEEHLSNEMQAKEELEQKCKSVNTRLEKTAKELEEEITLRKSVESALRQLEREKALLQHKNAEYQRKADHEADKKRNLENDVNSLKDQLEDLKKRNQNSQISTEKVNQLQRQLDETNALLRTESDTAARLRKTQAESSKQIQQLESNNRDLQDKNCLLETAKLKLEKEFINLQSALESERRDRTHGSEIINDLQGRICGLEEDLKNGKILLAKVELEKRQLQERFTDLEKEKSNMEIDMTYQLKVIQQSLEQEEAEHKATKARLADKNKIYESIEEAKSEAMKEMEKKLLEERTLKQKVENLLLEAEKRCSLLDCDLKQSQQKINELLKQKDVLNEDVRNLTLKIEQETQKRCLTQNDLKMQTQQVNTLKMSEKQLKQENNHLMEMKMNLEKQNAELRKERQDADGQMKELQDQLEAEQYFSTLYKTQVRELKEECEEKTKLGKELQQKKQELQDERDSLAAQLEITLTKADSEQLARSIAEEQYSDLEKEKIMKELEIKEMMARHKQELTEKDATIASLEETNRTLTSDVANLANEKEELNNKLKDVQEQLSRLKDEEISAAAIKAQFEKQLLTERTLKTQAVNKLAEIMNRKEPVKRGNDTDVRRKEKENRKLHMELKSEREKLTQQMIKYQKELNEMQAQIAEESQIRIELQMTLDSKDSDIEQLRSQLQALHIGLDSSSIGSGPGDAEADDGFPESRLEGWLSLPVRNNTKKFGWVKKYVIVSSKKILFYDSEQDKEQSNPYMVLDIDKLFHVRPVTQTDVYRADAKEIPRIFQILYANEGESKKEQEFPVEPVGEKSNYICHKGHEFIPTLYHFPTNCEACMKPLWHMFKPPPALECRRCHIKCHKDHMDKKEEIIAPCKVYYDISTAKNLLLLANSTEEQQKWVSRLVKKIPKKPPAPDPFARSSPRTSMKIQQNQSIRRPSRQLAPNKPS

For `Fc1ccc(CCNc2nccc(-c3nccc(C#Cc4ccc5[nH]ncc5c4)n3)n2)nc1` [Ex. 39, 4-((1H-Indazol-5-yl)ethynyl)-N-(2-(5-fluoropyridin-2-yl)ethyl)-[2,4′-bipyrimidin]-2′-amine], on ROCK2, the Kd lay in the range of 0.01 to 0.099 µM and the “ROCK2 Selectivity” value is recorded as “** (50 to 150-fold selectivity for ROCK2)”. For the same compound, the Kd at ROCK1 fell in the range of 1 to 9.9 µM.
As for `Cc1ccc(CNc2nccc(-c3nccc(C#Cc4ccc5[nH]ncc5c4)n3)n2)nc1` [Ex. 24, 4-((1H-Indazol-5-yl)ethynyl)-N-((5-methylpyridin-2-yl)methyl)-[2,4′-bipyrimidin]-2′-amine], at ROCK2, the dissociation constant (Kd) was less than 0.01 µM and the “ROCK2 Selectivity” value is given as “** (50 to 150-fold selectivity for ROCK2)”. Besides, the Kd on ROCK1 was in the range of 0.1 to 0.99 µM.
The matching figures for `COC(C)(C)CNc1nccc(-c2nccc(C#Cc3ccc4[nH]ncc4c3)n2)n1` [Ex. 81, 4-((1H-Indazol-5-yl)ethynyl)-N-(2-methoxy-2-methylpropyl)-[2,4′-bipyrimidin]-2′-amine]: 0.01 to 0.099 µM, “** (50 to 150-fold selectivity for ROCK2)” and 1 to 9.9 µM.
On the same counts, the results for `Fc1nccc(Cl)c1CNc1nccc(-c2nccc(C#Cc3ccc4[nH]ncc4c3)n2)n1` [Ex. 64, 4-((1H-Indazol-5-yl)ethynyl)-N-((4-chloro-2-fluoropyridin-3-yl)methyl)-[2,4′-bipyrimidin]-2′-amine] are 0.01 to 0.099 µM, “* (<50-fold selectivity for ROCK2)” and 0.1 to 0.99 µM.
The matching figures for `Cc1n[nH]c2ccc(C#Cc3ccnc(-c4ccnc(NCc5ccc(F)cn5)n4)n3)cc12` [Ex. 71, N-((5-Fluoropyridin-2-yl)methyl)-4-((3-methyl-1H-indazol-5-yl)ethynyl)-[2,4′-bipyrimidin]-2′-amine]: 0.1 to 0.99 µM, “* (<50-fold selectivity for ROCK2)” and 0.1 to 0.99 µM.
For `C(#Cc1ccnc(-c2ccnc(NCC3CCCCN3)n2)n1)c1ccc2[nH]ncc2c1` (stereo not drawn) [Ex. 9, 4-((1H-Indazol-5-yl)ethynyl)-N-(piperidin-2-ylmethyl)-[2,4′-bipyrimidin]-2′-amine], at ROCK2, the Kd fell in the range of 0.1 to 0.99 µM and the “ROCK2 Selectivity” value is reported as “* (<50-fold selectivity for ROCK2)”. In addition, at ROCK1, the Kd was 1 to 9.9 µM.
As to `C(#Cc1ccnc(-c2ccnc(NCc3ncccn3)n2)n1)c1ccc2[nH]ncc2c1` [Ex. 7, 4-((1H-indazol-5-yl)ethynyl)-N-(pyrimidin-2-ylmethyl)-[2,4′-bipyrimidin]-2′-amine], on ROCK2, the Kd was 0.01 to 0.099 µM and the “ROCK2 Selectivity” value is recorded as “* (<50-fold selectivity for ROCK2)”. In addition, on ROCK1, the Kd lay within 0.1 to 0.99 µM.
The matching figures for `C(#Cc1ccnc(-c2ccnc(NCC3CCCO3)n2)n1)c1ccc2[nH]ncc2c1` (stereo not drawn) [Ex. 17, 4-((1H-Indazol-5-yl)ethynyl)-N-((tetrahydrofuran-2-yl)methyl)-[2,4′-bipyrimidin]-2′-amine]: less than 0.01 µM, “*** (151 to 500-fold selectivity for ROCK2)” and 0.1 to 0.99 µM.
On the same counts, the results for `Fc1cnc(CNc2nccc(-c3nccc(C#Cc4ccc5[nH]ncc5c4)n3)n2)c(F)c1` [Ex. 38, 4-((1H-Indazol-5-yl)ethynyl)-N-((3,5-difluoropyridin-2-yl)methyl)-[2,4′-bipyrimidin]-2′-amine] are less than 0.01 µM, “** (50 to 150-fold selectivity for ROCK2)” and 0.1 to 0.99 µM.
On the same counts, the results for `O[C@@H]1CC[C@@H](Nc2nccc(-c3nccc(C#Cc4ccc5[nH]ncc5c4)n3)n2)C1` [Ex. 78, (1R,3R)-3-((4-((1H-Indazol-5-yl)ethynyl)-[2,4′-bipyrimidin]-2′-yl)amino)cyclopentanol] are less than 0.01 µM, “*** (151 to 500-fold selectivity for ROCK2)” and 1 to 9.9 µM.
As to `Fc1ccc(CNc2nccc(-c3nccc(C#Cc4cc(F)c5[nH]ncc5c4)n3)n2)nc1` [Ex. 36, 4-((7-Fluoro-1H-indazol-5-yl)ethynyl)-N-((5-fluoropyridin-2-yl)methyl)-[2,4′-bipyrimidin]-2′-amine], the results for the Kd at ROCK2 and at ROCK1 were 0.01 to 0.099 µM and 1 to 9.9 µM, respectively. For the same compound, the “ROCK2 Selectivity” value on ROCK2 is “** (50 to 150-fold selectivity for ROCK2)”.
On the same counts, the results for `O[C@H]1CC[C@@H](Nc2nccc(-c3nccc(C#Cc4ccn5cnnc5c4)n3)n2)CC1` [Ex. 97, (1s,4s)-4-((4-([1,2,4]Triazolo[4,3-a]pyridin-7-ylethynyl)-[2,4′-bipyrimidin]-2′-yl)amino)cyclohexanol] are 10 to 100 µM, 10 to 100 µM and “* (<50-fold selectivity for ROCK2)”.
As for `Fc1ccnc(CNc2nccc(-c3nccc(C#Cc4ccc5[nH]ncc5c4)n3)n2)c1` [Ex. 10, 4-((1H-Indazol-5-yl)ethynyl)-N-((4-fluoropyridin-2-yl)methyl)-[2,4′-bipyrimidin]-2′-amine], at ROCK2, the Kd was in the range of 0.01 to 0.099 µM and the “ROCK2 Selectivity” value is on record as “** (50 to 150-fold selectivity for ROCK2)”. Besides, the Kd on ROCK1 lay within 1 to 9.9 µM.
On the same counts, the results for `Fc1ccc(CNc2nccc(-c3nccc(C#Cc4ccc5[nH]ncc5c4)n3)n2)cn1` [Ex. 47, 4-((1H-Indazol-5-yl)ethynyl)-N-((6-fluoropyridin-3-yl)methyl)-[2,4′-bipyrimidin]-2′-amine] are 0.01 to 0.099 µM, “** (50 to 150-fold selectivity for ROCK2)” and 1 to 9.9 µM.
Regarding `CNC(=O)CNc1nccc(-c2nccc(C#Cc3ccc4[nH]ncc4c3)n2)n1` [Ex. 55, 2-((4-((1H-Indazol-5-yl)ethynyl)-[2,4′-bipyrimidin]-2′-yl)amino)-N-methylacetamide], the dissociation constant (Kd) on ROCK2 was 0.01 to 0.099 µM; on ROCK1, 1 to 9.9 µM. On ROCK2, the “ROCK2 Selectivity” value was “** (50 to 150-fold selectivity for ROCK2)”.
For the compound `CN1CCN(C(=O)CNc2nccc(-c3nccc(C#Cc4ccc5[nH]ncc5c4)n3)n2)CC1` [Ex. 73, 2-((4-((1H-Indazol-5-yl)ethynyl)-[2,4′-bipyrimidin]-2′-yl)amino)-1-(4-methylpiperazin-1-yl)ethanone], the Kd on ROCK2 lay in the range of 0.01 to 0.099 µM; at ROCK1 it was 0.1 to 0.99 µM. In addition, the “ROCK2 Selectivity” value at ROCK2 was “* (<50-fold selectivity for ROCK2)”.
With `Fc1ccc(CNc2nccc(-c3nccc(C#Cc4ccc5[nH]nc(F)c5c4)n3)n2)nc1` [Ex. 45, 4-((3-Fluoro-1H-indazol-5-yl)ethynyl)-N-((5-fluoropyridin-2-yl)methyl)-[2,4′-bipyrimidin]-2′-amine], on ROCK2, the Kd fell in the range of 0.01 to 0.099 µM and the “ROCK2 Selectivity” value is on record as “**** (>500-fold selectivity for ROCK2)”. In addition, the Kd on ROCK1 fell in the range of 10 to 100 µM.
The matching figures for `CN(Cc1ccc(F)cn1)c1nccc(-c2nccc(C#Cc3ccc4[nH]ncc4c3)n2)n1` [Ex. 30, 4-((1H-Indazol-5-yl)ethynyl)-N-((5-fluoropyridin-2-yl)methyl)-N-methyl-[2,4′-bipyrimidin]-2′-amine]: 0.1 to 0.99 µM, “* (<50-fold selectivity for ROCK2)” and 1 to 9.9 µM.
The matching figures for `O[C@H]1CC[C@H](Nc2nccc(-c3nccc(C#Cc4ccc5[nH]ncc5c4)n3)n2)C1` [Ex. 90, (1S,3S)-3-((4-((1H-Indazol-5-yl)ethynyl)-[2,4′-bipyrimidin]-2′-yl)amino)cyclopentanol]: less than 0.01 µM, “*** (151 to 500-fold selectivity for ROCK2)” and 1 to 9.9 µM.
